Measured values: PMC8105311 (Scientific Reports, 2021)

Key:
[1] = cited from earlier work
[2] = Solubility of L-carnitine in water; format: physicochemical
mice = test system: mice; design: method as in PMID 25488130; conditions: cited from earlier work
[3] = 195Pt NMR of ligand exchange of cisplatin in solution; format: physicochemical; conditions: for Detection of Pt species by 195Pt NMR: DMSO aq. equimolar to 50 wt% TMG aq., day 1
Method: ^195Pt NMR spectrometry and mass spectrometry
After leaving it at room temperature, the resulting solution was measured at Day 5 and Day 10. We used co-axial tubes and K2[PtCl4] in D2O (for adjusting shim) was in the inner tube.
(1 mL) was prepared and left for one day. The resulting solution was measured by ^195Pt NMR (Day 1; 25,000 scans). NaCl (80 mg) was added and stirred. The solution was left and measured (Day2–4; 25,000 scans). In the case of DMSO aq., the concentration of DMSO uesd was adjusted to be equimolar to 50 wt% TMG aq.

MDA-MB-231 cells = assay: Anticancer efficiency of cisplatin (cell viability, CellTiter 96 Aqueous One Solution); format: cell-based, human; conditions: final 0.1-100 µM
Method: MDA-MB-231 human breast cancer cell was kindly gifted from Prof. Erik Sahai (The Francis-Crick Institute, UK) and described previously^7. The cells were grown and maintained as monolayer cultures in 5% CO2 and humidified atmosphere at 37 °C, using Dulbecco's modified Eagle medium (high glucose with L-glutamine and phenol red, Fujiﬁlm Wako Pure Chemical Corporation), 10 vol% fetal bovine serum (Sigma-Aldrich Co., Llc.), and penicillin–streptomycin solution (×100; Fujiﬁlm Wako Pure Chemical Corporation). The cells were subcultured every 3–5 days by using trypsin solution (0.5w/v% trypsin—5.3mmol/L EDTA·4Na solution without phenol red (×10), Fujiﬁlm Wako Pure Chemical Corporation).
Anticancer efficiency of cisplatin
MDA-MB-231 cells (5,000 cells/well) were seeded to each well of a 96-well plate and then pre-cultured for 24 h. […] The solutions were added to the media to be 100, 10, 1, and 0.1 µM. The cells were cultured for 72 h and the cell viability was investigated with CellTiter 96® Aqueous One Solution.
(§1) The platinating agent (10 mM) was added to the 50 wt% TMG aq. (1 mL) and solubilized by stirring for 1 h. The resulting solution was left for more than one day. The resulting solution was freeze-dried and a pale yellow powder was obtained.

[4] = Dissolution time of cisplatin/TMG powder vs native cisplatin powder; format: physicochemical; conditions: native cisplatin powder in 50 wt% TMG aq.
Method: as §1
The yellow precipitates are undissolved cisplatin.

Question: Which “Kamlet-Taft β value (hydrogen bond basicity)” value [1] does the source give for `C[S+](C)[O-]` [DMSO, dimethyl sulfoxide] here?
Answer: 0.83

Question: Which Solubility in water [2] does the source give for `C[N+](C)(C)C[C@H](O)CC(=O)[O-]` [L-carnitine] here?
Answer: approximately 70 wt%

Question: For `C[N+](C)(C)CC(=O)O` [TMG, Trimethylglycine], which “Effect on nephrotoxicity when cisplatin is administered” value (mice) is on record?
Answer: reduces nephrotoxicity

Question: What does the source list for `N.N.O.[Cl][Pt+]` [[Pt(NH3)2Cl(H2O)]^+]?
Answer: Reversion to Pt(NH3)2Cl2 in the presence of NaCl ([3]; 50 wt% TMG aq., after NaCl addition): reverted to Pt(NH3)2Cl2; Ratio of Pt species by 195Pt NMR ([3]; 50 wt% TMG aq., after NaCl addition, day 2): 2 mol%; Ratio of Pt species by 195Pt NMR ([3]; 50 wt% TMG aq., after NaCl addition, day 3): 0 mol%; Ratio of Pt species by 195Pt NMR ([3]; 50 wt% TMG aq., after NaCl addition, day 4): 0 mol%; Ratio of Pt species by 195Pt NMR ([3]; 50 wt% TMG aq., left for 24 h (day 1), before NaCl addition): 17 mol%; Detection of Pt species by 195Pt NMR [3]: not detected

Question: For `N.N.[Cl][Pt][Cl]` [cisplatin], which MDA-MB-231 cell viability (MDA-MB-231 cells; 10 mM cisplatin stock in 50 wt% TMG aq., 72 h) is on record?
Answer: decreased in a dose-dependent manner

Question: And the “Anticancer effect (MDA-MB-231 cell viability)” value (MDA-MB-231 cells; cisplatin stock in 50 wt% L-carnitine aq., 72 h)?
Answer: retained the anticancer effect

Question: What about the “Anticancer effect (MDA-MB-231 cell viability)” value (MDA-MB-231 cells; cisplatin stock in DMSO, 72 h) of the same compound?
Answer: abolished

Question: And the MDA-MB-231 cell viability (MDA-MB-231 cells; solution regenerated with water from freeze-dried cisplatin/TMG powder (10 mM cisplatin in 50 wt% TMG aq.))?
Answer: killed MDA-MB-231 cells in a dose-dependent manner

Question: What about the “Ligand exchange (195Pt NMR)” value ([3]; 50 wt% TMG aq., immediately after dissolution) of the same compound?
Answer: ligand exchange did not occur

Question: What about the Chloride ligand exchanged ([3]; 50 wt% TMG aq., room temperature, after 10 days) of the same compound?
Answer: 66 mol%

Question: And the “Integral value of the signal of the emerging compound (Pt(NH3)2Cl2 signal fixed as 1.0)” value ([3]; 50 wt% TMG aq., room temperature, day 5)?
Answer: 1.25

Question: And the “Integral value of the signal of the emerging compound (Pt(NH3)2Cl2 signal fixed as 1.0)” value ([3]; 50 wt% TMG aq., room temperature, day 10)?
Answer: 1.90

Question: And the “Detection of Pt species by 195Pt NMR” value [3]?
Answer: not detected

Question: What about the “Time required for dissolution” value [4] of the same compound?
Answer: approximately 1 h

Question: With `O` [water] as the compound, how does the “Kamlet-Taft β value (hydrogen bond basicity)” value [1] read?
Answer: around 0.15

Question: For [Pt(NH3)Cl(DMSO)]^+, which “Detection of Pt species by 195Pt NMR” value [3] is on record?
Answer: detected

Question: What about the “Reversion to Pt(NH3)2Cl2 in the presence of NaCl” value ([3]; DMSO aq., after NaCl addition) of the same compound?
Answer: scarcely reverted to Pt(NH3)2Cl2
